The target of this experiment is squalene epoxidase (SQLE) (Homo sapiens, UniProt Q14534). Put plainly: SPR. It is filed as binding.

pKd: −log10 of the molar value.

Chain of squalene epoxidase (SQLE) (Q14534 whole entry): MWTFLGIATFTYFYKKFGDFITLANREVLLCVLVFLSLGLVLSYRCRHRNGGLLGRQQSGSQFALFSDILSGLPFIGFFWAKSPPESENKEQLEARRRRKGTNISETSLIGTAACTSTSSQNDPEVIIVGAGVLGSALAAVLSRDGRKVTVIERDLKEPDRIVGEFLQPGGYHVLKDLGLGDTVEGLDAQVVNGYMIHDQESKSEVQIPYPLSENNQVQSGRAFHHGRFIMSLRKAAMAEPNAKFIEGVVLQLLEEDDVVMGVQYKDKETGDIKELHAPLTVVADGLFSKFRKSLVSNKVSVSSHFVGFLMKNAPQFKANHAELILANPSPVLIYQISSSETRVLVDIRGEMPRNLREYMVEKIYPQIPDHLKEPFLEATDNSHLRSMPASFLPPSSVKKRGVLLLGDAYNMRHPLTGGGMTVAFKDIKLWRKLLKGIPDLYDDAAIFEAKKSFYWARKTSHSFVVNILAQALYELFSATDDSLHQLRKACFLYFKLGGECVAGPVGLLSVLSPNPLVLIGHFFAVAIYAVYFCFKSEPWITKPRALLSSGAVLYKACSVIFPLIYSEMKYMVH

The molecule `C[C@@H]1CC[C@@]2(OC1)O[C@H]1C[C@H]3[C@@H]4CC=C5C[C@@H](O[C@@H]6O[C@H](CO)[C@@H](O[C@@H]7O[C@@H](CO)[C@H](O)[C@H]7O)[C@H](O)[C@H]6O[C@@H]6O[C@@H](C)[C@H](O)[C@@H](O)[C@H]6O)CC[C@]5(C)[C@H]4CC[C@]3(C)[C@H]1[C@@H]2C` [PPI, Polyphyllin I] had a pKd of 4.58.

One may read the pKd as −log10 of the Kd, conventionally taken in molar units. A higher pKd goes with a low Kd.

These data come from article PMC9937801 (Journal of Pharmaceutical Analysis, 2022).
